The subject of one experiment is MiaPaCa-2. As to the kind of experiment: cells. Details: ATPlite luminescence viability of PDAC cell lines, 11-dose single-agent curves, 4-parameter fit. To be noted: Homo sapiens, MIA PaCa-2, 72 h, read-out: EC50 [nM]. Summed up: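 Drug-combination screening used cells plated at 1000 to 5000 per well one day before treatment. Final DMSO was 0.2%. Each plate held untreated negative-control wells and 5 µM staurosporine positive-control wells.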

Another experiment relates to 13 PDAC cell lines. As to the kind of experiment: Phenotypic drug combination viability screen (ATPlite, 72 h), cell line panel. The class given is cell-based, human. The settings on record: of 13 cell lines; Bliss model.

These results are taken from article PMC11876601 (Molecular Systems Biology, 2025).

On to `C[C@]12O[C@H](C[C@]1(O)CO)n1c3ccccc3c3c4c(c5c6ccccc6n2c5c31)CNC4=O` [Lestaurtinib], for which the concentration for a half-maximal effect (EC50) (as a rule, the concentration that produces a half-maximal response) in the experiment on MiaPaCa-2 was 275 nM. The “number of cell lines with synergy with GEM” value in the experiment on 13 PDAC cell lines was found to be 5 cell lines.
With `COc1cc(N2CCC(N3CCN(C)CC3)CC2)ccc1Nc1ncc(Cl)c(Nc2ccccc2P(C)(C)=O)n1` [Brigatinib], in the experiment with MiaPaCa-2, the EC50 is 177 nM. In the experiment with 13 PDAC cell lines, the “number of cell lines with synergy with GEM” value is 5 cell lines.
